According to ChEMBL document CHEMBL3785014, “A Binding Site on IL-17A for Inhibitory Macrocycles Revealed by Hydrogen/Deuterium Exchange Mass Spectrometry” (J Med Chem, 2016):
Active and inactive are the calls of the source.

Tests used:
[1] = biological target: Interleukin-17A (Homo sapiens) (UniProt Q16552); test: Binding affinity to recombinant human IL-17A assessed as protection from deuterium uptake at 92 to 99 residues at 10 uM after 10 to 3600 secs by HDX-MS
[2] = biological target: Interleukin-17A (Homo sapiens) (UniProt Q16552); test: Binding affinity to recombinant human IL-17A assessed as increase in deuterium uptake at 100 to 116 residues at 10 uM after 10 to 3600 secs by HDX-MS
[3] = biological target: Interleukin-17A (Homo sapiens) (UniProt Q16552); test: Binding affinity to recombinant human IL-17A assessed as protection from deuterium uptake at 90 to 101 residues at 10 uM after 10 to 3600 secs by HDX-MS
[4] = biological target: Interleukin-17A (Homo sapiens) (UniProt Q16552); test: Binding affinity to recombinant human IL-17A assessed as increase in deuterium uptake at 102 to 116 residues at 10 uM after 10 to 3600 secs by HDX-MS
[5] = biological target: Interleukin-17A (Homo sapiens) (UniProt Q16552); test: Binding affinity to recombinant human IL-17A assessed as protection from deuterium uptake at 58 to 72 residues at 10 uM after 10 to 3600 secs by HDX-MS
[6] = biological target: Interleukin-17A (Homo sapiens) (UniProt Q16552); test: Binding affinity to recombinant human IL-17A assessed as protection from deuterium uptake at 99 to 103 residues at 10 uM after 10 to 3600 secs by HDX-MS
[7] = biological target: Interleukin-17A (Homo sapiens) (UniProt Q16552); test: Binding affinity to recombinant human IL-17A assessed as increase in deuterium uptake at 102 to 120 residues at 10 uM after 10 to 3600 secs by HDX-MS
[8] = biological target: Interleukin-17A (Homo sapiens) (UniProt Q16552); test: Binding affinity to recombinant human IL-17A assessed as protection from deuterium uptake at 92 to 101 residues at 10 uM after 10 to 3600 secs by HDX-MS
[9] = biological target: Interleukin-17A (Homo sapiens) (UniProt Q16552); test: Binding affinity to recombinant human IL-17A assessed as protection from deuterium uptake at 58 to 71 residues at 10 uM after 10 to 3600 secs by HDX-MS
[10] = biological target: Interleukin-17A (Homo sapiens) (UniProt Q16552); test: Binding affinity to recombinant human IL-17A assessed as increase in deuterium uptake at 103 to 114 residues at 10 uM after 10 to 3600 secs by HDX-MS
[11] = biological target: Interleukin-17A (Homo sapiens) (UniProt Q16552); test: Binding affinity to recombinant human IL-17A assessed as increase in deuterium uptake at 104 to 116 residues at 10 uM after 10 to 3600 secs by HDX-MS

Measured: Activity

Chain of Interleukin-17A (Homo sapiens) (Q16552 whole entry, the tested form may be a part): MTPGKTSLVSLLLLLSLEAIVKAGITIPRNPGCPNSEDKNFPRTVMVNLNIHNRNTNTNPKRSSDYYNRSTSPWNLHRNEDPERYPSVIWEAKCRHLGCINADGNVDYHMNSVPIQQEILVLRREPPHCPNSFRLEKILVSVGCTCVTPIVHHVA

O=C1CNC(=O)[C@@H](Cc2ccc(NC(=O)[C@H](Cc3ccccc3Cl)NC(=O)Cc3ccccc3)cc2)NC(=O)CC2(CCCC2)CC(=O)NCCCCCN1
active: all assays above

O=C1CNC(=O)[C@@H](Cc2ccc(NC(=O)[C@H](Cc3ccccc3Cl)NC(=O)Cc3ccccc3)cc2)NC(=O)CC2(CCCC2)CC(=O)N[C@H](C(=O)O)CCCCN1
active: all assays above

O=C1CC2(CCCC2)CC(=O)N[C@H](Cc2ccc(NC(=O)[C@H](Cc3ccccc3Cl)NC(=O)Cc3cccc(O)c3)cc2)C(=O)NCCOCCOCCN1
active: all assays above
